Measured values as given in patent US9695155B2, “Herbicidal substituted pyrimidinyloxy benzene compounds” (E. I. DU PONT DE NEMOURS AND COMPANY, priority 2013, dated 2017).

How the values were obtained:
barnyardgrass [1] = assay: Test A preemergence; type: in vivo, Echinochloa crus-galli; details: for Barnyardgrass plant response rating (0 to 100 scale, 0 is no effect, 100 is complete control) / Plant response rating, Barnyardgrass: 125 g ai/ha; for Barnyardgrass plant response rating: 500 g ai/ha
In short: (§1)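 Pre- and postemergence greenhouse screen. Soil: loam + sand. Spray carrier: solvent mixture, non-phytotoxic, with surfactant. Post timing at 1–2 leaves, height 2–10 cm. Readout: visual injury on a 0–100 scale roughly 10 days after application, untreated plants as reference.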

large (Lg) crabgrass [2] = assay: Test A preemergence; type: in vivo, Digitaria sanguinalis; details: for Crabgrass, Large plant response rating (0 to 100 scale) / Plant response rating, Crabgrass, Large: 125 g ai/ha; for Crabgrass, Large plant response rating: 500 g ai/ha
In short: as §1

giant foxtail [3] = assay: Test A preemergence; type: in vivo, Setaria faberii; details: for Foxtail, Giant plant response rating (0 to 100 scale) / Plant response rating, Foxtail, Giant: 125 g ai/ha; for Foxtail, Giant plant response rating: 500 g ai/ha
In short: as §1

morningglory [4] = assay: Test A preemergence; type: in vivo, Ipomoea spp.; details: for Morningglory plant response rating (0 to 100 scale) / Plant response rating, Morningglory: 125 g ai/ha; for Morningglory plant response rating: 500 g ai/ha
In short: as §1

pigweed [5] = assay: Test A preemergence; type: in vivo, Amaranthus retroflexus; details: for Pigweed plant response rating (0 to 100 scale) / Plant response rating, Pigweed: 125 g ai/ha; for Pigweed plant response rating: 500 g ai/ha
In short: as §1

velvetleaf [6] = assay: Test A preemergence; type: in vivo, Abutilon theophrasti; details: for Velvetleaf plant response rating (0 to 100 scale) / Plant response rating, Velvetleaf: 125 g ai/ha; for Velvetleaf plant response rating: 500 g ai/ha
In short: as §1

wheat [7] = assay: Test A preemergence; type: in vivo, Triticum aestivum; details: for Wheat plant response rating (0 to 100 scale) / Plant response rating, Wheat: 125 g ai/ha; for Wheat plant response rating: 500 g ai/ha
In short: as §1

corn [8] = assay: Test A preemergence; type: in vivo, Zea mays; details: for Corn plant response rating (0 to 100 scale) / Plant response rating, Corn: 125 g ai/ha; for Corn plant response rating: 500 g ai/ha
In short: as §1

barnyardgrass [9] = assay: Test A postemergence; type: in vivo, Echinochloa crus-galli
In short: as §1

large (Lg) crabgrass [10] = assay: Test A postemergence; type: in vivo, Digitaria sanguinalis
In short: as §1

giant foxtail [11] = assay: Test A postemergence; type: in vivo, Setaria faberii
In short: as §1

morningglory [12] = assay: Test A postemergence; type: in vivo, Ipomoea spp.
In short: as §1

pigweed [13] = assay: Test A postemergence; type: in vivo, Amaranthus retroflexus
In short: as §1

velvetleaf [14] = assay: Test A postemergence; type: in vivo, Abutilon theophrasti
In short: as §1

wheat [15] = assay: Test A postemergence; type: in vivo, Triticum aestivum
In short: as §1

corn [16] = assay: Test A postemergence; type: in vivo, Zea mays
In short: as §1

rice = assay: Test B flooded paddy test; type: in vivo, Oryza sativa; details: Flood, 250 g ai/ha; 0 to 100 scale where 0 is no effect and 100 is complete control
In short: (§2)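 Evaluation is visual, against untreated controls, 13 to 15 days after treatment. Before treatment, plants reached the 2-leaf stage; pots were then flooded 3 cm deep, compound was added to the water, and that level was maintained. Ratings run 0 to 100, with 100 meaning complete control.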

sedge, umbrella = assay: Test B flooded paddy test; type: in vivo, Cyperus difformis; details: Flood, 250 g ai/ha; 0 to 100 scale where 0 is no effect and 100 is complete control
In short: as §2

Heteranthera limosa = assay: Test B flooded paddy test; type: in vivo; details: Flood, 250 g ai/ha; 0 to 100 scale where 0 is no effect and 100 is complete control
In short: as §2

barnyardgrass [17] = assay: Test B flooded paddy test; type: in vivo, Echinochloa crus-galli; details: Flood, 250 g ai/ha; 0 to 100 scale where 0 is no effect and 100 is complete control
In short: as §2

[18] = 0 to 100 scale where 0 is no effect and 100 is complete control
[19] = 125 g ai/ha, 0 to 100 scale where 0 is no effect and 100 is complete control
[20] = 500 g ai/ha, 0 to 100 scale where 0 is no effect and 100 is complete control
[21] = 125 g ai/ha, 0 to 100 scale, 0 no effect, 100 complete control
[22] = 0 to 100 scale, 0 no effect, 100 complete control, approx. 10 days
[23] = 500 g ai/ha, 0 to 100 scale, 0 no effect, 100 complete control

Fc1cc(Oc2ncc(Cl)cn2)c(-n2cc(Br)cn2)cc1F [Compound 196]
Barnyardgrass plant response rating (0 to 100 scale, 0 is no effect, 100 is complete control) (barnyardgrass [1]): 0
Barnyardgrass plant response rating (barnyardgrass [1]; [18]): 40
Crabgrass, Large plant response rating (0 to 100 scale) (large (Lg) crabgrass [2]): 60
Crabgrass, Large plant response rating (large (Lg) crabgrass [2]; [18]): 100
Foxtail, Giant plant response rating (0 to 100 scale) (giant foxtail [3]): 50
Foxtail, Giant plant response rating (giant foxtail [3]; [18]): 90
Morningglory plant response rating (0 to 100 scale) (morningglory [4]): 0
Morningglory plant response rating (morningglory [4]; [18]): 0
Pigweed plant response rating (0 to 100 scale) (pigweed [5]): 90
Pigweed plant response rating (pigweed [5]; [18]): 100
Velvetleaf plant response rating (0 to 100 scale) (velvetleaf [6]): 20
Velvetleaf plant response rating (velvetleaf [6]; [18]): 40
Wheat plant response rating (0 to 100 scale) (wheat [7]): 0
Wheat plant response rating (wheat [7]; [18]): 0
Corn plant response rating (0 to 100 scale) (corn [8]): 0
Corn plant response rating (corn [8]; [18]): 0
Barnyardgrass plant response rating (barnyardgrass [9]; [19]): 10
Plant response rating, Barnyardgrass (barnyardgrass [9]; [20]): 50
Crabgrass, Large plant response rating (large (Lg) crabgrass [10]; [19]): 30
Plant response rating, Crabgrass, Large (large (Lg) crabgrass [10]; [20]): 90
Foxtail, Giant plant response rating (giant foxtail [11]; [19]): 30
Plant response rating, Foxtail, Giant (giant foxtail [11]; [20]): 80
Morningglory plant response rating (morningglory [12]; [19]): 20
Plant response rating, Morningglory (morningglory [12]; [20]): 80
Pigweed plant response rating (pigweed [13]; [19]): 100
Plant response rating, Pigweed (pigweed [13]; [20]): 100
Velvetleaf plant response rating (velvetleaf [14]; [19]): 100
Plant response rating, Velvetleaf (velvetleaf [14]; [20]): 100
Wheat plant response rating (wheat [15]; [19]): 0
Plant response rating, Wheat (wheat [15]; [20]): 10
Corn plant response rating (corn [16]; [19]): 10
Plant response rating, Corn (corn [16]; [20]): 40
Plant response rating, Rice (rice): 0
Plant response rating, Sedge, Umbrella (sedge, umbrella): 70
Plant response rating, Ducksalad (Heteranthera limosa): 85
Plant response rating, Barnyardgrass (barnyardgrass [17]): 20

NN=Cc1cccc(Oc2ncc(Cl)cn2)c1-n1cc(Br)cn1 [Compound 288]
Barnyardgrass plant response rating (0 to 100 scale, 0 is no effect, 100 is complete control) (barnyardgrass [1]): 0
Barnyardgrass plant response rating (barnyardgrass [1]; [18]): 10
Crabgrass, Large plant response rating (0 to 100 scale) (large (Lg) crabgrass [2]): 0
Crabgrass, Large plant response rating (large (Lg) crabgrass [2]; [18]): 10
Foxtail, Giant plant response rating (0 to 100 scale) (giant foxtail [3]): 0
Foxtail, Giant plant response rating (giant foxtail [3]; [18]): 0
Morningglory plant response rating (0 to 100 scale) (morningglory [4]): 0
Morningglory plant response rating (morningglory [4]; [18]): 0
Pigweed plant response rating (0 to 100 scale) (pigweed [5]): 20
Pigweed plant response rating (pigweed [5]; [18]): 90
Velvetleaf plant response rating (0 to 100 scale) (velvetleaf [6]): 0
Velvetleaf plant response rating (velvetleaf [6]; [18]): 10
Wheat plant response rating (0 to 100 scale) (wheat [7]): 0
Wheat plant response rating (wheat [7]; [18]): 0
Corn plant response rating (0 to 100 scale) (corn [8]): 0
Corn plant response rating (corn [8]; [18]): 0
Plant response rating, Barnyardgrass (barnyardgrass [9]; [21]): 0
Plant response rating, Barnyardgrass (barnyardgrass [9]; [20]): 10
Plant response rating, Crabgrass, Large (large (Lg) crabgrass [10]; [21]): 10
Plant response rating, Crabgrass, Large (large (Lg) crabgrass [10]; [20]): 20
Plant response rating, Foxtail, Giant (giant foxtail [11]; [21]): 10
Plant response rating, Foxtail, Giant (giant foxtail [11]; [20]): 20
Plant response rating, Morningglory (morningglory [12]; [21]): 20
Plant response rating, Morningglory (morningglory [12]; [20]): 40
Plant response rating, Pigweed (pigweed [13]; [21]): 90
Plant response rating, Pigweed (pigweed [13]; [20]): 100
Plant response rating, Velvetleaf (velvetleaf [14]; [21]): 20
Plant response rating, Velvetleaf (velvetleaf [14]; [20]): 30
Plant response rating, Wheat (wheat [15]; [21]): 0
Plant response rating, Wheat (wheat [15]; [20]): 0
Plant response rating, Corn (corn [16]; [21]): 0
Plant response rating, Corn (corn [16]; [20]): 10
Plant response rating, Rice (rice): 0
Plant response rating, Sedge, Umbrella (sedge, umbrella): 0
Plant response rating, Ducksalad (Heteranthera limosa): 0
Plant response rating, Barnyardgrass (barnyardgrass [17]): 0

N#Cc1cccc(Oc2ncc(Br)cn2)c1-n1cc(Cl)cn1 [Compound 71]
Plant response rating, Barnyardgrass (barnyardgrass [1]; [18]): 60
Barnyardgrass plant response rating (barnyardgrass [1]; [22]): 100
Plant response rating, Crabgrass, Large (large (Lg) crabgrass [2]; [18]): 100
Crabgrass, Large plant response rating (large (Lg) crabgrass [2]; [22]): 100
Plant response rating, Foxtail, Giant (giant foxtail [3]; [18]): 100
Foxtail, Giant plant response rating (giant foxtail [3]; [22]): 100
Plant response rating, Morningglory (morningglory [4]; [18]): 90
Morningglory plant response rating (morningglory [4]; [22]): 90
Plant response rating, Pigweed (pigweed [5]; [18]): 100
Pigweed plant response rating (pigweed [5]; [22]): 100
Plant response rating, Velvetleaf (velvetleaf [6]; [18]): 70
Velvetleaf plant response rating (velvetleaf [6]; [22]): 100
Plant response rating, Wheat (wheat [7]; [18]): 20
Wheat plant response rating (wheat [7]; [22]): 40
Plant response rating, Corn (corn [8]; [18]): 30
Corn plant response rating (corn [8]; [22]): 40
Plant response rating, Barnyardgrass (barnyardgrass [9]; [19]): 80
Plant response rating, Barnyardgrass (barnyardgrass [9]; [23]): 90
Plant response rating, Crabgrass, Large (large (Lg) crabgrass [10]; [19]): 70
Plant response rating, Crabgrass, Large (large (Lg) crabgrass [10]; [23]): 100
Plant response rating, Foxtail, Giant (giant foxtail [11]; [19]): 80
Plant response rating, Foxtail, Giant (giant foxtail [11]; [20]): 90
Plant response rating, Morningglory (morningglory [12]; [19]): 70
Plant response rating, Morningglory (morningglory [12]; [20]): 90
Plant response rating, Pigweed (pigweed [13]; [19]): 100
Plant response rating, Pigweed (pigweed [13]; [20]): 100
Plant response rating, Velvetleaf (velvetleaf [14]; [19]): 90
Plant response rating, Velvetleaf (velvetleaf [14]; [20]): 100
Plant response rating, Wheat (wheat [15]; [19]): 10
Plant response rating, Wheat (wheat [15]; [20]): 40
Plant response rating, Corn (corn [16]; [19]): 30
Plant response rating, Corn (corn [16]; [23]): 60
Plant response rating, Rice (rice): 30
Plant response rating, Sedge, Umbrella (sedge, umbrella): 70
Plant response rating, Ducksalad (Heteranthera limosa): 0
Plant response rating, Barnyardgrass (barnyardgrass [17]): 0

Cc1cnc(Oc2cccc(C#N)c2-n2cc(Br)cn2)nc1 [Compound 76]
Plant response rating, Barnyardgrass (barnyardgrass [1]; [18]): 50
Barnyardgrass plant response rating (barnyardgrass [1]; [22]): 100
Plant response rating, Crabgrass, Large (large (Lg) crabgrass [2]; [18]): 100
Crabgrass, Large plant response rating (large (Lg) crabgrass [2]; [22]): 100
Plant response rating, Foxtail, Giant (giant foxtail [3]; [18]): 80
Foxtail, Giant plant response rating (giant foxtail [3]; [22]): 100
Plant response rating, Morningglory (morningglory [4]; [18]): 0
Morningglory plant response rating (morningglory [4]; [22]): 80
Plant response rating, Pigweed (pigweed [5]; [18]): 100
Pigweed plant response rating (pigweed [5]; [22]): 100
Plant response rating, Velvetleaf (velvetleaf [6]; [18]): 90
Velvetleaf plant response rating (velvetleaf [6]; [22]): 100
Plant response rating, Wheat (wheat [7]; [18]): 0
Wheat plant response rating (wheat [7]; [22]): 30
Plant response rating, Corn (corn [8]; [18]): 20
Corn plant response rating (corn [8]; [22]): 30
Plant response rating, Barnyardgrass (barnyardgrass [9]; [19]): 60
Plant response rating, Barnyardgrass (barnyardgrass [9]; [23]): 100
Plant response rating, Crabgrass, Large (large (Lg) crabgrass [10]; [19]): 70
Plant response rating, Crabgrass, Large (large (Lg) crabgrass [10]; [23]): 100
Plant response rating, Foxtail, Giant (giant foxtail [11]; [19]): 60
Plant response rating, Foxtail, Giant (giant foxtail [11]; [20]): 90
Plant response rating, Morningglory (morningglory [12]; [19]): 60
Plant response rating, Morningglory (morningglory [12]; [20]): 90
Plant response rating, Pigweed (pigweed [13]; [19]): 90
Plant response rating, Pigweed (pigweed [13]; [20]): 100
Plant response rating, Velvetleaf (velvetleaf [14]; [19]): 80
Plant response rating, Velvetleaf (velvetleaf [14]; [20]): 100
Plant response rating, Wheat (wheat [15]; [19]): 0
Plant response rating, Wheat (wheat [15]; [20]): 10
Plant response rating, Corn (corn [16]; [19]): 10
Plant response rating, Corn (corn [16]; [23]): 80
Plant response rating, Rice (rice): 0
Plant response rating, Sedge, Umbrella (sedge, umbrella): 75
Plant response rating, Ducksalad (Heteranthera limosa): 70
Plant response rating, Barnyardgrass (barnyardgrass [17]): 0
